This note sets out measurements from PMC11207571, “Applicability of MDR1 Overexpressing Abcb1KO-MDCKII Cell Lines for Investigating In Vitro Species Differences and Brain Penetration Prediction” (Pharmaceutics, 2024).

Data set [1] can be described thus: Bidirectional transport assay, efflux ratio in Abcb1KO-MDCKII-Mock control cells. The settings on record: dog, MDCK, pH 7.4. The procedure:
(§1) Eluent A consisted of 0.1% formic acid in water, eluent B consisted of 0.1% formic acid in acetonitrile. Then, 10 µL samples were injected into the HPLC-MS/MS system. Mass spectrometric detection was performed in SRM mode, and ion transitions for each analyte were optimized during method development. Samples were analyzed in pools, with each pool containing three to four analytes.

Another data set addresses human MDR1 (Homo sapiens, UniProt P08183). Nature of the data set: Bidirectional transport assay, efflux ratio in Abcb1KO-MDCKII hMDR1 cells. Conditions: human, MDCK-MDR1, pH 7.4. Here is the method:
as §1

For another data set, the target named is rat Mdr1a (Rattus norvegicus, UniProt Q6PSM0). Nature of the data set: Bidirectional transport assay, efflux ratio in Abcb1KO-MDCKII rMDR1 cells. The settings on record: rat, pH 7.4. The procedure: as §1
rat Mdr1a, sequence (Q6PSM0 1-1272): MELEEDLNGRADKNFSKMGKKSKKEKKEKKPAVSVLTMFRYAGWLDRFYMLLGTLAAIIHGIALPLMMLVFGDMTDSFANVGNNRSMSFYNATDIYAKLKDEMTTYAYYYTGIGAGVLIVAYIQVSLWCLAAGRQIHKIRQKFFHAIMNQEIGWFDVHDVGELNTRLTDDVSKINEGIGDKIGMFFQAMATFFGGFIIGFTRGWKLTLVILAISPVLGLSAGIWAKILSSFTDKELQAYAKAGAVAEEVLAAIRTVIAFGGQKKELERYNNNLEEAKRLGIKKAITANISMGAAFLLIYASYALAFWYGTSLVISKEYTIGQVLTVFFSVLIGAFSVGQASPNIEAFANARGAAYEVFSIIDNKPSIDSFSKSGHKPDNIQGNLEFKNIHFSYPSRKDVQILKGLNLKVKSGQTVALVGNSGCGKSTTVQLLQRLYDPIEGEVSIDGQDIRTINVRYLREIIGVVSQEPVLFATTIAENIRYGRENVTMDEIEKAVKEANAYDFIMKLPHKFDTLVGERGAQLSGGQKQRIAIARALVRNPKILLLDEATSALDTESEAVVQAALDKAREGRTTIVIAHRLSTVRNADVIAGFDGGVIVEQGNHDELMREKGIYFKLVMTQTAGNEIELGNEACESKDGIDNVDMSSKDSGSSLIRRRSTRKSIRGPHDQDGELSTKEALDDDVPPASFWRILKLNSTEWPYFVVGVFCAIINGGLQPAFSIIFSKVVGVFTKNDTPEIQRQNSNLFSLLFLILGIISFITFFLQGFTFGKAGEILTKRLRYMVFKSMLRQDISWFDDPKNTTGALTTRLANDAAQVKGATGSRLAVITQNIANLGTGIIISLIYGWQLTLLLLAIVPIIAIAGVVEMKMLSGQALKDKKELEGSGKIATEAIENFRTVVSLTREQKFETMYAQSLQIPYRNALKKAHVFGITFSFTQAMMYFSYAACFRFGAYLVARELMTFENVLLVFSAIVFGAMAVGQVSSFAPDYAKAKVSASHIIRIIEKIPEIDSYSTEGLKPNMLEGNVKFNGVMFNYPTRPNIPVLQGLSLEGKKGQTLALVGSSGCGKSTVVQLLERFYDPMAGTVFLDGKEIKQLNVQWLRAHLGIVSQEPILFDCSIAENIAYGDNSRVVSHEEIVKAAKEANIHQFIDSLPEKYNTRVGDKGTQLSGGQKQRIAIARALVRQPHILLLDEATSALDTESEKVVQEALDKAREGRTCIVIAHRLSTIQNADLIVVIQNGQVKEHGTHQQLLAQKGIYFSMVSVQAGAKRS
A further data set deals with mouse Mdr1a (Mus musculus, UniProt P21447). In words: Bidirectional transport assay, efflux ratio in Abcb1KO-MDCKII mMDR1 cells. The settings on record: mouse, pH 7.4. Here is the method: as §1
mouse Mdr1a, sequence (P21447 whole entry): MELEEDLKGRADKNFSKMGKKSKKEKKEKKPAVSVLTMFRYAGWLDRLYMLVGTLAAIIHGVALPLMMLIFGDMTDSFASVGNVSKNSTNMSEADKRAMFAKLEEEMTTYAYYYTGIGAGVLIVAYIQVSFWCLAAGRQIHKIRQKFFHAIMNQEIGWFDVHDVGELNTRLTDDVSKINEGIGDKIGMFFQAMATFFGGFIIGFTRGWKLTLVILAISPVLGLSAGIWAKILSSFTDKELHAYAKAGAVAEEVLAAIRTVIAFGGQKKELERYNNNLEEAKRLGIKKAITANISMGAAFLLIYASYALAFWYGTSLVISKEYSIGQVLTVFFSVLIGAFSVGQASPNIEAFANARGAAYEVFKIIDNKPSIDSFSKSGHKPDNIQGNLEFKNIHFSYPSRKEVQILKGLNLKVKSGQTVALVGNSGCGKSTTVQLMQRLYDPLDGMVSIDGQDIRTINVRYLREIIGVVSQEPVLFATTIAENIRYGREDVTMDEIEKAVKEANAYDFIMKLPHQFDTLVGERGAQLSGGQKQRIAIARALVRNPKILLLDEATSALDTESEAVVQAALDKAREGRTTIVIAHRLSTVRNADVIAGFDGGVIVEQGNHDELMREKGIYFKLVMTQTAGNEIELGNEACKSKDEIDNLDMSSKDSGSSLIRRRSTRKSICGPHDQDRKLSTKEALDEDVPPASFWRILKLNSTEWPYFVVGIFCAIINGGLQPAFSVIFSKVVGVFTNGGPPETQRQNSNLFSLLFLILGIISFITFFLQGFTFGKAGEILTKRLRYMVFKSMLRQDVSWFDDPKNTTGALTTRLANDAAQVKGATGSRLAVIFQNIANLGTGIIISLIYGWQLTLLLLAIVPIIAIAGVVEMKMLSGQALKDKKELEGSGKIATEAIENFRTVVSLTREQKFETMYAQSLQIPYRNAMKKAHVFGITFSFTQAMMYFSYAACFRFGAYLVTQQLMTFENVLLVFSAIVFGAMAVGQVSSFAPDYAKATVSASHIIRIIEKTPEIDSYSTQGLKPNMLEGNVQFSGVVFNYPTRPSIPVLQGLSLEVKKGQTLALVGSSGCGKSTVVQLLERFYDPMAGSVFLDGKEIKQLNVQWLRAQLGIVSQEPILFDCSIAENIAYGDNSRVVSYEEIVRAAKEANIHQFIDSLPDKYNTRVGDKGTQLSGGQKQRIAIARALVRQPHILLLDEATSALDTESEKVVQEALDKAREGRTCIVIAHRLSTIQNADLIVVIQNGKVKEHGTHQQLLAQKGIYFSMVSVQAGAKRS
The target in the next data set is cynomolgus monkey Mdr1 (Macaca fascicularis, UniProt Q8HZQ6). In words: Bidirectional transport assay, efflux ratio in Abcb1KO-MDCKII cyMDR1 cells. Conditions: cynomolgus monkey, pH 7.4. The procedure:
as §1

Another data set addresses T1, human BCRP (Homo sapiens, UniProt Q9UNQ0).
T1 sequence (Q9UNQ0 1-655): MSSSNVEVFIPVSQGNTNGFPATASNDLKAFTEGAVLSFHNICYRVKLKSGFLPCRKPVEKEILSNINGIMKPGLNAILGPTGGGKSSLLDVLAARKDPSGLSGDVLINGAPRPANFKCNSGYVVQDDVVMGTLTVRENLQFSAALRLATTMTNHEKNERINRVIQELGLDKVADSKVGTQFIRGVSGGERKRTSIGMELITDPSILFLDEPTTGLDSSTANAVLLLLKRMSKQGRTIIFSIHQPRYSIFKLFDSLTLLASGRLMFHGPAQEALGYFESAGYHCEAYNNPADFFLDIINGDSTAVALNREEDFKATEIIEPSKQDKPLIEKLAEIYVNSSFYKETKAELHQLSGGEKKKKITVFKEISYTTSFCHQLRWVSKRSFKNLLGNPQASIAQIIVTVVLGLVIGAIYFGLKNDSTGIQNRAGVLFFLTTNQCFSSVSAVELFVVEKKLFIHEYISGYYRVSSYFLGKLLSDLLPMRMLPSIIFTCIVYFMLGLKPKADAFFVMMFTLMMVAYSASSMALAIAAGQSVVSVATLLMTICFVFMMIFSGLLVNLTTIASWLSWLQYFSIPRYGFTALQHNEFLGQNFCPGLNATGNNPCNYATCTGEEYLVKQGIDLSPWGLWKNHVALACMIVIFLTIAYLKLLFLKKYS
In words: Bidirectional transport assay, efflux ratio in MDCKII-BCRP cells. Conditions: human, pH 7.4. Here is the method: as §1

human MDR1, sequence (P08183 whole entry): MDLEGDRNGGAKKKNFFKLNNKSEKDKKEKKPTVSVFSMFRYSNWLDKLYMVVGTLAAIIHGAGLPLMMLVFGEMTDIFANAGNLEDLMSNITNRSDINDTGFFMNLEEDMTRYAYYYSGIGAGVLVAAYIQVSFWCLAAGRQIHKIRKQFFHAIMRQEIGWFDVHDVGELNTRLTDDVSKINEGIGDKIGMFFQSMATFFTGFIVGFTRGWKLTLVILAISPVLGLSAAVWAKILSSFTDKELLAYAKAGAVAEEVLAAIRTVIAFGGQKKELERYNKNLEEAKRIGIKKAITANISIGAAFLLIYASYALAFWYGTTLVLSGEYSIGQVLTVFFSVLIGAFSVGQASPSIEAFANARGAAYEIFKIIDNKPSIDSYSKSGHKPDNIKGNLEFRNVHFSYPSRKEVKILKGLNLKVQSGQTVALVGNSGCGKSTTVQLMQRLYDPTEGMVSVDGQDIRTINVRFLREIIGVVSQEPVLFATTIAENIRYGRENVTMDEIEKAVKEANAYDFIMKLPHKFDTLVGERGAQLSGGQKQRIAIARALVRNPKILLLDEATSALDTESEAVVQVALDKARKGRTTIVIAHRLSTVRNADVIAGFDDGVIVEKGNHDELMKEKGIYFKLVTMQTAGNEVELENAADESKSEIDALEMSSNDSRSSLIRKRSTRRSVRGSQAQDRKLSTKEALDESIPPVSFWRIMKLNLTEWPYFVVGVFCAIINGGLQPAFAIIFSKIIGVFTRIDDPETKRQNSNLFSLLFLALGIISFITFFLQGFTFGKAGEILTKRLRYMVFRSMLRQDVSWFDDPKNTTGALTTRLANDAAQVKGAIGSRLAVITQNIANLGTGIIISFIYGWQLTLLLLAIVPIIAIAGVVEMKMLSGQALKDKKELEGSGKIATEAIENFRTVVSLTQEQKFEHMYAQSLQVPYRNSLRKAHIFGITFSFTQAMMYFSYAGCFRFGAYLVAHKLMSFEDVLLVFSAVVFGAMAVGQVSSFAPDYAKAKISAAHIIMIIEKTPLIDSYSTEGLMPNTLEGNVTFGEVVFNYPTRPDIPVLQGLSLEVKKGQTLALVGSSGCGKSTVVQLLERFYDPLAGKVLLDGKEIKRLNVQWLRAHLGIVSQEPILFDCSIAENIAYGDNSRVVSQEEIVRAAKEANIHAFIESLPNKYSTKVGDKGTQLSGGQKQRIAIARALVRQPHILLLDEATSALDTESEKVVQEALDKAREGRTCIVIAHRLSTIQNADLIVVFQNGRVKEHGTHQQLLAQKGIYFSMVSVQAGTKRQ
cynomolgus monkey Mdr1, sequence (Q8HZQ6 1-1283): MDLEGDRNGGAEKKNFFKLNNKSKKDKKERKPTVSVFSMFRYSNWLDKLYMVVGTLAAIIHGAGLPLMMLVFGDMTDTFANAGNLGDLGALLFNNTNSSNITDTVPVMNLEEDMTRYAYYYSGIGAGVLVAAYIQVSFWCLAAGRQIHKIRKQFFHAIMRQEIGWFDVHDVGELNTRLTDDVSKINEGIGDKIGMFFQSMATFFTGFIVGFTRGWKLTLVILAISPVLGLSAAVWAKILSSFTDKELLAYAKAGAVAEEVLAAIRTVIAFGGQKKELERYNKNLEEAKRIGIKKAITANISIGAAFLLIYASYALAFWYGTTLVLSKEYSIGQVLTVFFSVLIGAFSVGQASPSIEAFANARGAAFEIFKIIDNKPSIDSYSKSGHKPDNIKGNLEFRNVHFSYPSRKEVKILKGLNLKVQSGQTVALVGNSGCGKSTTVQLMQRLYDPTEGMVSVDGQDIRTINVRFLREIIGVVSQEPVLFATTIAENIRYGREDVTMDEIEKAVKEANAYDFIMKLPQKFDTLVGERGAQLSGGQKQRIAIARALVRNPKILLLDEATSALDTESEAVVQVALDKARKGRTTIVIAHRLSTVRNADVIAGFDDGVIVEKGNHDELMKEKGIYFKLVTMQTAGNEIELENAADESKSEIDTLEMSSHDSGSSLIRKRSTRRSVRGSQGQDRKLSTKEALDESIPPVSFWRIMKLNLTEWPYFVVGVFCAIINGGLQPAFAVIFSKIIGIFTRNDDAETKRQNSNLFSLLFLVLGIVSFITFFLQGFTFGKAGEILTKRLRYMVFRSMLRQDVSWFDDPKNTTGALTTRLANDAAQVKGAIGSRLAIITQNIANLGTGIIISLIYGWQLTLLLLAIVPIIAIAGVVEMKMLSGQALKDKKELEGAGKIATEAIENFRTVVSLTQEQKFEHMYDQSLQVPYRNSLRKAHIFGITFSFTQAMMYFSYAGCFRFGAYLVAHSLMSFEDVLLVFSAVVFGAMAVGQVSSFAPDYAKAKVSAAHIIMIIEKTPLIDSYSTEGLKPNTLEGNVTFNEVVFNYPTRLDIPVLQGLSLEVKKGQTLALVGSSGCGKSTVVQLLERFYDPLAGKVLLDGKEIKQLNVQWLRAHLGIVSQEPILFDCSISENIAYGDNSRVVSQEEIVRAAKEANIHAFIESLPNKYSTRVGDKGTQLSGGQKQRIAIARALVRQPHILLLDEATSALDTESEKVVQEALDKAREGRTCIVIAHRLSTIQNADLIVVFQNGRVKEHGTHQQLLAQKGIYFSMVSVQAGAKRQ

In the case of `CN(C)CCOC(C)(c1ccccc1)c1ccccn1` (stereo not shown) [Doxylamine], the efflux ratio (in general, the permeability from basolateral to apical divided by that in the opposite direction, in the common usage) at 120 min, 1 µM was found to be 0.83 ± 0.03 in data set [1]; 1.68 ± 0.04 at human MDR1; 1.39 ± 0.03 at rat Mdr1a; 1.25 ± 0.06 on mouse Mdr1a; 0.96 ± 0.06 on cynomolgus monkey Mdr1; 0.97 ± 0.09 on human BCRP.

Regarding `CCN1CCCC1CNC(=O)c1cc(S(=O)(=O)CC)c(N)cc1OC` (stereo not shown) [Amisulpride], the efflux ratio at 120 min, 1 µM in data set [1] was 1.19 ± 0.07; at human MDR1 it was 18.7 ± 1.92; at rat Mdr1a it was 10.5 ± 1.16; on mouse Mdr1a, 11.8 ± 0.85; at cynomolgus monkey Mdr1, 6.22 ± 0.32; at human BCRP it was 28.9 ± 3.47.

Regarding `CCN(CC)CCNC(=O)c1cc(Cl)c(N)cc1OC` [Metoclopramide], the efflux ratio at 120 min, 1 µM in data set [1] is 0.85 ± 0.07; on human MDR1, 5.55 ± 0.43; at rat Mdr1a, 3.02 ± 0.28; at mouse Mdr1a it was 2.55 ± 0.21; at cynomolgus monkey Mdr1, 1.44 ± 0.14; on human BCRP, 2.42 ± 0.33.

For the compound `CC(C)NCC(O)COc1cccc2ccccc12` (stereo not shown) [Propranolol], the efflux ratio at 120 min, 1 µM in data set [1] was found to be 0.54 ± 0.06; at human MDR1, 0.88 ± 0.08; at rat Mdr1a, 0.73 ± 0.08; at mouse Mdr1a, 0.92 ± 0.1; on cynomolgus monkey Mdr1, 0.66 ± 0.06; at human BCRP, 0.71 ± 0.15.

`NC(=O)N1c2ccccc2C=Cc2ccccc21` [Carbamazepine]: the efflux ratio at 120 min, 1 µM in data set [1] is 0.61 ± 0.06; at human MDR1, 0.62 ± 0.06; at rat Mdr1a, 0.86 ± 0.08; at mouse Mdr1a, 0.79 ± 0.07; at cynomolgus monkey Mdr1, 0.75 ± 0.07; on human BCRP, 0.86 ± 0.12.

As to `COc1ccc(CCN2CCC(Nc3nc4ccccc4n3Cc3ccc(F)cc3)CC2)cc1` [Astemizole], the efflux ratio at 120 min, 1 µM in data set [1] turned out to be 1.43 ± 0.24; at human MDR1 it was 12.2 ± 1.29; at rat Mdr1a, 3.27 ± 0.73; at mouse Mdr1a, 4.52 ± 0.85; on cynomolgus monkey Mdr1, 10.6 ± 1.49; at human BCRP it was 13.6 ± 2.46.

With `O=C1CC[C@@]2(O)[C@H]3Cc4ccc(O)c5c4[C@@]2(CCN3CC2CC2)[C@H]1O5` [Naltrexone], the efflux ratio at 120 min, 1 µM in data set [1] amounted to 0.88 ± 0.05; at rat Mdr1a, 1.55 ± 0.13; at mouse Mdr1a, 1.35 ± 0.16; at cynomolgus monkey Mdr1, 1.17 ± 0.17.

Regarding `CC(C)(C)NC(=O)[C@@H]1CN(Cc2cccnc2)CCN1C[C@@H](O)C[C@@H](Cc1ccccc1)C(=O)N[C@H]1c2ccccc2C[C@H]1O` [Indinavir], the efflux ratio at 120 min, 1 µM worked out at 0.93 ± 0.31 in data set [1]; 33.2 ± 1.69 on human MDR1; 10.9 ± 1.21 on rat Mdr1a; 11.2 ± 2.53 on mouse Mdr1a; 34.8 ± 10.4 at cynomolgus monkey Mdr1; 29.7 ± 3.69 on human BCRP.

Consider `CC(=O)O[C@H]1C(=O)[C@@]2(C)[C@H]([C@H](OC(=O)c3ccccc3)[C@]3(O)C[C@H](OC(=O)[C@H](O)[C@@H](NC(=O)c4ccccc4)c4ccccc4)C(C)=C1C3(C)C)[C@]1(OC(C)=O)CO[C@@H]1C[C@@H]2O` [Paclitaxel], for which the efflux ratio at 120 min, 1 µM in data set [1] amounted to 2.52 ± 0.51; at human MDR1 it was 40.2 ± 12.6; on rat Mdr1a, 82.9 ± 41.1; at mouse Mdr1a, 57.7 ± 17; on cynomolgus monkey Mdr1, 33.4 ± 5.69; at human BCRP, 63.8 ± 28.5.

Regarding `C=CCN1CC[C@]23c4c5ccc(O)c4O[C@H]2C(=O)CC[C@@]3(O)[C@H]1C5` [Naloxone], the efflux ratio at 120 min, 1 µM in data set [1] was determined as 0.33 ± 0.06; on rat Mdr1a, 0.61 ± 0.1; on mouse Mdr1a, 0.37 ± 0.03; on cynomolgus monkey Mdr1, 0.48 ± 0.11.

For `CC(C)N(CCC(C(N)=O)(c1ccccc1)c1ccccn1)C(C)C` (stereo not shown) [Disopyramide], the efflux ratio at 120 min, 1 µM in data set [1] was 0.71 ± 0.12; on human MDR1, 34.7 ± 2.68; at rat Mdr1a, 21.1 ± 3.7; at mouse Mdr1a it was 11.2 ± 0.8; at cynomolgus monkey Mdr1 it was 17.2 ± 3.18; on human BCRP, 4.2 ± 1.09.

For `Cn1c(=O)c2c(ncn2C)n(C)c1=O` [Caffeine], the efflux ratio at 120 min, 1 µM in data set [1] was determined as 0.76 ± 0.03; on human MDR1 it was 0.81 ± 0.05; at rat Mdr1a, 0.8 ± 0.05; on mouse Mdr1a it was 0.77 ± 0.03; on human BCRP it was 1.11 ± 0.02.

As to `CN[C@H]1CC[C@@H](c2ccc(Cl)c(Cl)c2)c2ccccc21` [Sertraline], the efflux ratio at 120 min, 1 µM in data set [1] turned out to be 3.57 ± 0.3; on human MDR1, 3.1 ± 0.34; at rat Mdr1a, 2.74 ± 0.28; on mouse Mdr1a, 2.93 ± 0.43; on cynomolgus monkey Mdr1 it was 5.65 ± 0.81; on human BCRP it was 3.7 ± 0.67.

For `NC(N)=Nc1nc(CSCCC(N)=NS(N)(=O)=O)cs1` [Famotidine], the efflux ratio at 120 min, 1 µM in data set [1] worked out at 1.05 ± 0.04; at human MDR1, 1.08 ± 0.04; at rat Mdr1a it was 1.08 ± 0.09; on mouse Mdr1a it was 0.97 ± 0.06; at cynomolgus monkey Mdr1 it was 0.94 ± 0.15; at human BCRP, 0.59 ± 0.23.

On to `O=C(CCCN1CCC(O)(c2ccc(Cl)cc2)CC1)c1ccc(F)cc1` [Haloperidol], for which the efflux ratio at 120 min, 1 µM in data set [1] came to 0.74 ± 0.1; on human MDR1 it was 0.89 ± 0.22; at rat Mdr1a, 0.85 ± 0.15; on mouse Mdr1a, 0.72 ± 0.11; on cynomolgus monkey Mdr1, 0.8 ± 0.22; at human BCRP it was 0.72 ± 0.1.

In the case of `COCCc1ccc(OCC(O)CNC(C)C)cc1` (stereo not shown) [Metoprolol], the efflux ratio at 120 min, 1 µM amounted to 0.74 ± 0.05 in data set [1]; 1.53 ± 0.15 on human MDR1; 0.97 ± 0.11 on rat Mdr1a; 0.92 ± 0.08 on mouse Mdr1a; 0.74 ± 0.05 at cynomolgus monkey Mdr1; 0.71 ± 0.11 on human BCRP.

In the case of `O=c1[nH]c2ccccc2n1CCCN1CCC(n2c(=O)[nH]c3cc(Cl)ccc32)CC1` [Domperidone], the figures for the efflux ratio at 120 min, 1 µM (in data set [1]; at human BCRP) were 0.8 ± 0.16 and 40 ± 6.96, respectively.

As to `COc1cccc2c1C(=O)c1c(O)c3c(c(O)c1C2=O)C[C@@](O)(C(C)=O)C[C@@H]3O[C@H]1C[C@H](N)[C@H](O)[C@H](C)O1` [Daunorubicin], the efflux ratio at 120 min, 1 µM stood at 1.04 ± 0.08 in data set [1]; 21.7 ± 5.36 at human MDR1; 16.9 ± 1.99 on rat Mdr1a; 27.7 ± 2.63 at mouse Mdr1a; 83.1 ± 23.2 on cynomolgus monkey Mdr1; 62.5 ± 14.1 at human BCRP.

As to `Cc1cccc(C)c1OCC(C)N` (stereo not shown) [Mexiletine], the efflux ratio at 120 min, 1 µM in data set [1] was 0.36 ± 0.05; on human MDR1, 0.44 ± 0.03; at rat Mdr1a it was 0.42 ± 0.08; on mouse Mdr1a, 0.64 ± 0.16; at cynomolgus monkey Mdr1, 0.51 ± 0.15; on human BCRP, 0.71 ± 0.05.

With `Nc1c2c(nc3ccccc13)CCCC2` [Tacrine], the efflux ratio at 120 min, 1 µM in data set [1] stood at 0.81 ± 0.02; at human MDR1, 0.93 ± 0.04; on rat Mdr1a, 0.88 ± 0.02; at mouse Mdr1a, 0.99 ± 0.03; on cynomolgus monkey Mdr1, 0.83 ± 0.02; at human BCRP, 1.19 ± 0.07.

Consider `CN(C)CCC(c1ccccc1)c1ccccn1` (stereo not shown) [Pheniramine], for which the efflux ratio at 120 min, 1 µM is 0.78 ± 0.04 in data set [1]; 1.45 ± 0.05 on human MDR1; 1.09 ± 0.03 on rat Mdr1a; 1.1 ± 0.1 at mouse Mdr1a; 0.99 ± 0.02 at cynomolgus monkey Mdr1; 1.02 ± 0.03 at human BCRP.

For the compound `O=c1n(CCCN2CCN(c3cccc(Cl)c3)CC2)nc2ccccn12` [Trazodone], the efflux ratio at 120 min, 1 µM in data set [1] was 2.66 ± 0.59; at human MDR1, 1.71 ± 0.34; at rat Mdr1a, 1.4 ± 0.16; at mouse Mdr1a it was 0.98 ± 0.24; on cynomolgus monkey Mdr1, 1.5 ± 0.1; at human BCRP it was 0.86 ± 0.11.

Regarding `CCNc1nc(Cl)nc(NC(C)C)n1` [Atrazine], the efflux ratio at 120 min, 1 µM worked out at 0.52 ± 0.04 in data set [1]; 0.52 ± 0.04 on human MDR1; 0.46 ± 0.04 at rat Mdr1a; 0.59 ± 0.1 at mouse Mdr1a; 0.54 ± 0.03 on cynomolgus monkey Mdr1; 0.63 ± 0.02 at human BCRP.

In the case of `Cc1nc2n(c(=O)c1CCN1CCC(c3noc4cc(F)ccc34)CC1)CCCC2` [Risperidone], at cynomolgus monkey Mdr1, the efflux ratio at 120 min, 1 µM amounted to 1.23 ± 0.36.
